Data published in PubChem BioAssay (NCI).
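Compound exposure: 48 hours, 5 concentrations, 96-well plates. GI50 is the concentration that inhibits growth by half. TGI: concentration producing complete growth inhibition.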

Columns and labels:
Experiment in all cases: inhibition of tumour cell growth, NCI panel, 48 h
OVCAR-3 ovarian = system: OVCAR-3 ovarian
OVCAR-4 ovarian = system: OVCAR-4 ovarian
SK-MEL-2 melanoma = system: SK-MEL-2 melanoma
MCF7 breast = system: MCF7 breast
HOP-92 NSCLC = system: HOP-92 NSCLC
SK-MEL-5 melanoma = system: SK-MEL-5 melanoma
EKVX NSCLC = system: EKVX NSCLC
PC-3 prostate = system: PC-3 prostate
A498 renal = system: A498 renal
BT-549 breast = system: BT-549 breast
OVCAR-8 ovarian = system: OVCAR-8 ovarian
HCC-2998 colon = system: HCC-2998 colon
CCRF-CEM leukemia = system: CCRF-CEM leukemia
UO-31 renal = system: UO-31 renal
HT29 colon = system: HT29 colon
MOLT-4 leukemia = system: MOLT-4 leukemia
IGROV1 ovarian = system: IGROV1 ovarian
MALME-3M melanoma = system: MALME-3M melanoma
HCT-116 colon = system: HCT-116 colon
786-0 renal = system: 786-0 renal
NCI-H226 lung = system: NCI-H226 lung
UACC-62 melanoma = system: UACC-62 melanoma
DU-145 prostate = system: DU-145 prostate
HL-60(TB) leukemia = system: HL-60(TB) leukemia
K-562 leukemia = system: K-562 leukemia
SNB-19 CNS = system: SNB-19 CNS
ACHN renal = system: ACHN renal
NCI-H460 lung = system: NCI-H460 lung
LOX IMVI melanoma = system: LOX IMVI melanoma
SW-620 colon = system: SW-620 colon
KM12 colon = system: KM12 colon
UACC-257 melanoma = system: UACC-257 melanoma
SN12C renal = system: SN12C renal
SK-OV-3 ovarian = system: SK-OV-3 ovarian
SK-MEL-28 melanoma = system: SK-MEL-28 melanoma
OVCAR-5 ovarian = system: OVCAR-5 ovarian
MDA-MB-435 = system: MDA-MB-435
SF-539 CNS = system: SF-539 CNS
HCT-15 colon = system: HCT-15 colon
HOP-62 NSCLC = system: HOP-62 NSCLC
RPMI-8226 leukemia = system: RPMI-8226 leukemia
COLO 205 colon = system: COLO 205 colon
NCI-H522 lung = system: NCI-H522 lung
HS 578T breast = system: HS 578T breast
NCI/ADR-RES ovarian = system: NCI/ADR-RES ovarian
SF-295 CNS = system: SF-295 CNS
MDA-MB-231 breast = system: MDA-MB-231 breast
CAKI-1 renal = system: CAKI-1 renal
TK-10 renal = system: TK-10 renal
SF-268 CNS = system: SF-268 CNS
U251 CNS = system: U251 CNS
M14 melanoma = system: M14 melanoma
T-47D breast = system: T-47D breast
A549 NSCLC = system: A549 NSCLC
NCI-H23 lung = system: NCI-H23 lung
RXF 393 renal = system: RXF 393 renal
SNB-75 CNS = system: SNB-75 CNS

What does the source list for CCCCCCCCCCCCSC1=C(Cl)C(=O)C(OC)=C(OC)C1=O?
GI50 (OVCAR-3 ovarian): 1390 nM; TGI (OVCAR-3 ovarian): 18.3 µM; GI50 (OVCAR-4 ovarian): 3.81 µM; TGI (OVCAR-4 ovarian): 26.6 µM; GI50 (SK-MEL-2 melanoma): 4.36 µM; TGI (SK-MEL-2 melanoma): 14.8 µM; GI50 (MCF7 breast): 417 nM; TGI (MCF7 breast): 7.12 µM; GI50 (HOP-92 NSCLC): 2670 nM; TGI (HOP-92 NSCLC): 16.3 µM; GI50 (SK-MEL-5 melanoma): 490 nM; TGI (SK-MEL-5 melanoma): 3.66 µM; GI50 (EKVX NSCLC): 1610 nM; TGI (EKVX NSCLC): > 29.5 µM; GI50 (PC-3 prostate): 1180 nM; TGI (PC-3 prostate): 9.09 µM; TGI (A498 renal): 14.1 µM; GI50 (BT-549 breast): 1200 nM; TGI (BT-549 breast): 9.35 µM; GI50 (OVCAR-8 ovarian): 2350 nM; TGI (OVCAR-8 ovarian): > 100 µM; GI50 (HCC-2998 colon): 2410 nM; TGI (HCC-2998 colon): 10.9 µM; GI50 (CCRF-CEM leukemia): 1530 nM; TGI (CCRF-CEM leukemia): > 100 µM; GI50 (UO-31 renal): 2270 nM; TGI (UO-31 renal): 11.5 µM; GI50 (HT29 colon): 3.22 µM; TGI (HT29 colon): 17.5 µM; GI50 (MOLT-4 leukemia): 617 nM; TGI (MOLT-4 leukemia): 18.6 µM; GI50 (IGROV1 ovarian): 6.99 µM; TGI (IGROV1 ovarian): 20.7 µM; GI50 (MALME-3M melanoma): 539 nM; TGI (MALME-3M melanoma): 14.2 µM; GI50 (HCT-116 colon): 508 nM; TGI (HCT-116 colon): 11.9 µM; GI50 (786-0 renal): 4.18 µM; TGI (786-0 renal): 19.2 µM; GI50 (NCI-H226 lung): 5.9 µM; TGI (NCI-H226 lung): 28.3 µM; GI50 (UACC-62 melanoma): 2360 nM; TGI (UACC-62 melanoma): 17.6 µM; GI50 (DU-145 prostate): 11.2 µM; TGI (DU-145 prostate): 31.5 µM; GI50 (HL-60(TB) leukemia): 50.2 nM; TGI (HL-60(TB) leukemia): 5.82 µM; GI50 (K-562 leukemia): 205 nM; TGI (K-562 leukemia): > 40 µM; GI50 (SNB-19 CNS): 3.64 µM; TGI (SNB-19 CNS): 15 µM; GI50 (ACHN renal): 1520 nM; TGI (ACHN renal): 18.2 µM; GI50 (NCI-H460 lung): 2150 nM; TGI (NCI-H460 lung): 11.1 µM; GI50 (LOX IMVI melanoma): 462 nM; TGI (LOX IMVI melanoma): 5.38 µM; GI50 (SW-620 colon): 630 nM; TGI (SW-620 colon): 17.5 µM; GI50 (KM12 colon): 1850 nM; TGI (KM12 colon): 11.6 µM; GI50 (UACC-257 melanoma): 3.62 µM; TGI (UACC-257 melanoma): 27.6 µM; GI50 (SN12C renal): 1750 nM; TGI (SN12C renal): 16.5 µM; GI50 (SK-OV-3 ovarian): 9.78 µM; TGI (SK-OV-3 ovarian): 27.3 µM; GI50 (SK-MEL-28 melanoma): 5.93 µM; TGI (SK-MEL-28 melanoma): 21.8 µM; GI50 (OVCAR-5 ovarian): 3.49 µM; TGI (OVCAR-5 ovarian): 11.7 µM; GI50 (MDA-MB-435): 653 nM; TGI (MDA-MB-435): 10.2 µM; GI50 (SF-539 CNS): 2810 nM; TGI (SF-539 CNS): 11.9 µM; GI50 (HCT-15 colon): 1690 nM; TGI (HCT-15 colon): 27.8 µM; GI50 (HOP-62 NSCLC): 6.07 µM; TGI (HOP-62 NSCLC): 18.5 µM; GI50 (RPMI-8226 leukemia): 239 nM; TGI (RPMI-8226 leukemia): 3.7 µM; GI50 (COLO 205 colon): 4.32 µM; TGI (COLO 205 colon): 18.4 µM; GI50 (NCI-H522 lung): 379 nM; TGI (NCI-H522 lung): 3.75 µM; GI50 (HS 578T breast): 2760 nM; TGI (HS 578T breast): 7.96 µM; GI50 (NCI/ADR-RES ovarian): 2480 nM; TGI (NCI/ADR-RES ovarian): 8.94 µM; GI50 (SF-295 CNS): 2030 nM; TGI (SF-295 CNS): 7 µM; GI50 (MDA-MB-231 breast): 1860 nM; TGI (MDA-MB-231 breast): 10.4 µM; GI50 (CAKI-1 renal): 4.79 µM; TGI (CAKI-1 renal): 34.2 µM; GI50 (TK-10 renal): 2240 nM; TGI (TK-10 renal): 24.6 µM; GI50 (SF-268 CNS): 3.08 µM; TGI (SF-268 CNS): 16.1 µM; GI50 (U251 CNS): 1570 nM; TGI (U251 CNS): 12.2 µM; GI50 (M14 melanoma): 2530 nM; TGI (M14 melanoma): 18.4 µM; GI50 (T-47D breast): 420 nM; TGI (T-47D breast): 2730 nM; GI50 (A549 NSCLC): 4.39 µM; TGI (A549 NSCLC): 21.1 µM; GI50 (NCI-H23 lung): 3.36 µM; TGI (NCI-H23 lung): 20.2 µM; GI50 (RXF 393 renal): 4.51 µM; TGI (RXF 393 renal): 23.1 µM; GI50 (SNB-75 CNS): 1210 nM; TGI (SNB-75 CNS): 10.7 µM
